BigSolDB 2.1

O=C(O)Cc1c[nH]c2ccccc12
solubility (mole fraction)
Settings	278.15 K	283.15 K	288.15 K	293.15 K	298.15 K	303.15 K	308.15 K	313.15 K	318.15 K	323.15 K
in 1,4-dioxane	–	–	2.06e-05	2.2e-05	2.35e-05	2.51e-05	2.69e-05	2.89e-05	3.12e-05	3.38e-05
in DMF	2.98e-05	3.12e-05	3.29e-05	3.47e-05	3.67e-05	3.9e-05	4.16e-05	4.45e-05	4.74e-05	5.07e-05
in DMSO	–	–	–	3.73e-05	3.95e-05	4.2e-05	4.45e-05	4.77e-05	5.12e-05	5.48e-05
in acetone	2.49e-05	2.6e-05	2.73e-05	2.89e-05	3.07e-05	3.26e-05	3.49e-05	3.73e-05	3.98e-05	4.25e-05
in acetonitrile	6.51e-06	6.98e-06	7.47e-06	8.03e-06	8.68e-06	9.36e-06	1.01e-05	1.1e-05	1.2e-05	1.3e-05
in chloroform	2.88e-06	2.99e-06	3.11e-06	3.29e-06	3.48e-06	3.62e-06	3.88e-06	4.07e-06	4.34e-06	4.61e-06
in ethanol	1.17e-05	1.25e-05	1.35e-05	1.47e-05	1.6e-05	1.73e-05	1.86e-05	2.03e-05	2.22e-05	2.41e-05
in ethyl acetate	3.44e-05	3.64e-05	3.85e-05	4.09e-05	4.32e-05	4.58e-05	4.85e-05	5.13e-05	5.43e-05	5.76e-05
in isopropanol	2.15e-05	2.27e-05	2.41e-05	2.56e-05	2.71e-05	2.88e-05	3.1e-05	3.34e-05	3.58e-05	3.88e-05
in methanol	8.95e-06	9.76e-06	1.05e-05	1.17e-05	1.27e-05	1.38e-05	1.53e-05	1.67e-05	1.83e-05	1.99e-05
in n-butanol	2.78e-05	2.9e-05	3.04e-05	3.2e-05	3.39e-05	3.6e-05	3.83e-05	4.09e-05	4.34e-05	4.65e-05
in n-propanol	1.45e-05	1.54e-05	1.65e-05	1.8e-05	1.93e-05	2.08e-05	2.24e-05	2.42e-05	2.62e-05	2.85e-05
